SMILES strings stand for the structures.

The target of the first assay is T1, catalytic domain of human collagenase 3 (MMP-13) (Homo sapiens, UniProt P45452).
T1 construct: Determining the enzyme activity of the catalytic domain of human collagenase 3 (MMP-13); purchased INVITEK, Berlin 30 100 803
The experiment in a line: Enzyme activity of the catalytic domain of human collagenase 3 (MMP-13), fluorogenic substrate. Type of assay: biochemical.
Settings: not given
As for the experimental part: Determining the enzyme activity of the catalytic domain of human collagenase 3 (MMP-13).
Activating the proenzyme:
2 parts by volume of proenzyme are incubated with 1 part by volume of APMA solution at 37° C. for 1.5 hours. The APMA solution is prepared from a 10 mmol/L solution of p-aminophenylmercuric acetate in 0.1 mmol/L NaOH by diluting with 3 parts by volume of tris/HCl buffer, pH 7.5 (see below). The pH is adjusted to between 7.0 and 7.5 by adding 1 mmol/L HCl. After the enzyme has been activated, it is diluted to a concentration of 1.67 μg/ml using the tris/HCl buffer.
In order to measure the enzyme activity, 10 μL of enzyme solution are incubated for 15 minutes with 10 μL of a 3% (v/v) buffered solution of dimethyl sulfoxide (reaction 1). In order to measure the enzyme inhibitor activity, 10 μL of enzyme solution are incubated with 10 μL of a 3% (v/v) buffered solution of dimethyl sulfoxide containing the enzyme inhibitor (reaction 2).
In the case of both reaction 1 and reaction 2, the enzyme reaction is monitored by fluorescence spectroscopy (328 nm (extinction)/393 nm (emission)) after adding 10 μL of a 3% (v/v) aqueous solution of dimethyl sulfoxide containing 0.75 mmol of the substrate/L.
The enzyme activity is depicted as increase in extinction/minute.
The effect of the inhibitor is calculated as a percentage inhibition using the following formula: % inhibition=100−[(increase in extinction/minute in reaction 2)/(increase in extinction/minute in reaction 1)×100].
The IC50, i.e. the inhibitor concentration which is required for inhibiting the enzyme activity by 50%, is determined graphically by plotting the percentage inhibitions at different inhibitor concentrations.
The buffer solution contains 0.05% Brij (Sigma, Deisenhofen, Germany) and 0.1 mol of tris/HCl/L, 0.1 mol of NaCl/L and 0.01 mol of CaCl2/L (pH=7.5). The enzyme solution contains 1.67 μg of the enzyme domain/mL.
The substrate solution contains 0.75 mmol/L of the fluorogenic substrate (7-methoxycoumarin-4-yl)acetyl-Pro-Leu-Gly-Leu-3-(2′,4′-dinitrophenyl)-L-2,3-diaminopropionyl-Ala-Arg-NH2 (Bachem, Heidelberg, Germany).
For `COc1cccc(CNC(=O)c2cc(C(=O)NCc3ccc(C(=O)N4CCC(=O)CC4)cc3)ncn2)c1` [Example 64], half-maximal inhibition (IC50) was put at 10 nM.
In the case of `Cc1cc(CNC(=O)c2cc(C(=O)NCc3ccc(C(=O)N4CCC(=O)CC4)cc3)ncn2)ccc1F` [Example 65], it took 15 nM to reach half-maximal inhibition (IC50).
With `O=C1CCN(C(=O)c2ccc(CNC(=O)c3cc(C(=O)NCc4ccc5c(c4)CCO5)ncn3)cc2)CC1` [Example 66], half-maximal inhibition (IC50) required 10 nM.

Staying with this assay, now noted: catalytic domain, activated proenzyme, pH 7.5; read-out: IC50 MMP13.
`CCN(CC)C(=O)c1ccc(CNC(=O)c2cc(C(=O)NCc3cccc(OC)c3)ncn2)cc1` [Example 3, Pyrimidine-4,6-dicarboxylic acid 4-(4-diethylcarbamoylbenzylamide) 6-(3-methoxybenzylamide)]: the IC50 (commonly the midpoint of a concentration-inhibition curve) came out at 4 nM.
For `O=C(NCc1ccncc1)c1cc(C(=O)NCc2ccc3c(c2)CCO3)ncn1` [Example 4, Pyrimidine-4,6-dicarboxylic acid4-[(2,3-dihydrobenzofuran-5-ylmethyl)amide] 6-[(pyridin-4-ylmethyl)amide]], the IC50 amounted to 20 nM.
On to `O=C(NCc1ccc(C(=O)N2CCOCC2)cc1)c1cc(C(=O)NCc2ccc3c(c2)CCO3)ncn1` [Example 5, Pyrimidine-4,6-dicarboxylic acid 4-[(2,3-dihydrobenzofuran-5-ylmethyl)amide]6-[4-(morpholine-4-carbonyl)benzylamide]], for which the half-maximal inhibitory concentration (IC50) worked out at 8 nM.
For `COc1cccc(CNC(=O)c2cc(C(=O)NCc3ccc(NC(=O)OC(C)C)cc3)ncn2)c1` [Example 6], the half-inhibitory concentration (IC50) amounted to 20 nM.
On the same count and under the same terms, the result for `COc1cccc(CNC(=O)c2cc(C(=O)NCc3ccc(C(=O)NCCN4CCOCC4)cc3)ncn2)c1` [Example 36] reads 10 nM; that for `O=C(NCc1ccc2c(c1)CCO2)c1cc(C(=O)NCc2cccs2)ncn1` [Example 39], 30 nM; that for `O=C(NCc1cccnc1)c1cc(C(=O)NCc2ccc3c(c2)OCCO3)ncn1` [Example 44], 200 nM.
On to `CCCNC(=O)c1ccc(CNC(=O)c2cc(C(=O)NCc3cccc(OC)c3)ncn2)cc1` [Example 62], for which the IC50 is 13 nM.
Regarding `CS(=O)(=O)NC(=O)Nc1ccc(CNC(=O)c2cc(C(=O)NCc3ccc(F)c(Cl)c3)ncn2)cc1` [Example 63], the IC50 was determined as 9 nM.
For the compound `COc1cccc(CNC(=O)c2cc(C(=O)NCc3ccc(C(=O)N4CCC(O)CC4)cc3)ncn2)c1` [Example 67], the IC50 was 15 nM.
In the case of `O=C(NCc1ccc(C(=O)N2CCC(O)CC2)cc1)c1cc(C(=O)NCc2ccc3c(c2)CCO3)ncn1` [Example 68], the 50% inhibitory concentration (IC50) is 22 nM.
The same measure, in the same setting: the result for `Cc1cc(CNC(=O)c2cc(C(=O)NCc3ccc(C(=O)N4CCC(O)CC4)cc3)ncn2)ccc1F` [Example 69] reads 32 nM; that for `Cc1cc(CNC(=O)c2cc(C(=O)NCc3ccc(C(=O)N4CCSCC4)cc3)ncn2)ccc1F` [Example 70], 24 nM; that for `COc1cccc(CNC(=O)c2cc(C(=O)NCc3ccc(C(=O)N4CCSCC4)cc3)ncn2)c1` [Example 71], 9 nM.
For `O=C(NCc1ccc(C(=O)N2CCSCC2)cc1)c1cc(C(=O)NCc2ccc3c(c2)CCO3)ncn1` [Example 72], the IC50 was determined as 10 nM.
In the case of `COc1cccc(CNC(=O)c2cc(C(=O)NCc3ccc(C(=O)N4CCNC(=O)C4)cc3)ncn2)c1` [Example 73], the IC50 came out at 25 nM.
Same read-out and setting: to `O=C1CN(C(=O)c2ccc(CNC(=O)c3cc(C(=O)NCc4ccc5c(c4)CCO5)ncn3)cc2)CCN1` [Example 74] belongs 30 nM.
As to `Cc1cc(CNC(=O)c2cc(C(=O)NCc3ccc(C(=O)N4CCNC(=O)C4)cc3)ncn2)ccc1F` [Example 75], the IC50 is 70 nM.
In the case of `O=C(NCCO)c1ccc(CNC(=O)c2cc(C(=O)NCc3ccc4c(c3)CCO4)ncn2)cc1` [Example 75a], the IC50 stood at 34 nM.
`Cc1cc(CNC(=O)c2cc(C(=O)NCc3ccc(C(=O)NCCO)cc3)ncn2)ccc1F` [Example 76]: the IC50 came out at 23 nM.
Turning to `Cc1cc(CNC(=O)c2cc(C(=O)NCc3ccc(C(=O)NC#N)cc3)ncn2)ccc1F` [Example 78], the IC50 is 3 nM.
For `O=C(NCc1ccncc1)c1ccc(CNC(=O)c2cc(C(=O)NCc3ccc4c(c3)CCO4)ncn2)cc1` [Example 82], the half-maximal inhibitory concentration (IC50) worked out at 30 nM.
On the same count and under the same terms, to `Cc1cc(CNC(=O)c2cc(C(=O)NCc3ccc(NC(=O)NS(C)(=O)=O)cc3)ncn2)ccc1F` [Example 83] belongs 5 nM; to `CS(=O)(=O)NC(=O)Nc1ccc(CNC(=O)c2cc(C(=O)NCc3ccc4c(c3)CCO4)ncn2)cc1` [Example 84], 3.2 nM; to `N#CNC(=O)c1ccc(CNC(=O)c2cc(C(=O)NCc3ccc4c(c3)CCO4)ncn2)cc1` [Example 85], 3.5 nM.
As for `COc1cccc(CNC(=O)c2cc(C(=O)NCc3ccc(C(=O)NC#N)cc3)ncn2)c1` [Example 86], the IC50 amounted to 2.5 nM.
`Cc1cc(CNC(=O)c2cc(C(=O)NCc3ccc(C(=O)N4CCOCC4)cc3)ncn2)ccc1F` [Example 87]: the IC50 was determined as 24 nM.
As for `COc1cccc(CNC(=O)c2cc(C(=O)NCc3cccc(NC(=O)NS(C)(=O)=O)c3)ncn2)c1` [Example 88], the concentration for half-maximal inhibition (IC50) is 33 nM.
On the same count and under the same terms, the result for `COc1cccc(CNC(=O)c2cc(C(=O)NCc3ccc(C(=O)NO)cc3)ncn2)c1` [Example 89] reads 18 nM; that for `Cc1cc(CNC(=O)c2cc(C(=O)NCc3ccc(C(=O)NO)cc3)ncn2)ccc1F` [Example 93], 20 nM; that for `O=C(NO)c1ccc(CNC(=O)c2cc(C(=O)NCc3ccc4c(c3)CCO4)ncn2)cc1` [Example 94], 20 nM.
Still for that read-out and setting: the result for `COc1cccc(CNC(=O)c2cc(C(=O)NCc3ccc(C(=O)NC(C)(C)C)cc3)ncn2)c1` [Example 96] reads 50 nM; that for `O=C(O)CNC(=O)c1ccc(CNC(=O)c2cc(C(=O)NCc3ccc4c(c3)CCO4)ncn2)cc1` [Example 98], 20 nM.
As for `Cc1cc(CNC(=O)c2cc(C(=O)NCc3ccc(C(=O)NCCN4CCCC4)cc3)ncn2)ccc1F` [Example 99], the IC50 was 50 nM.
In the case of `COc1cccc(CNC(=O)c2cc(C(=O)NCc3ccc(NC(=O)NS(C)(=O)=O)cc3)ncn2)c1` [Example 101], the 50% inhibitory concentration (IC50) was 2 nM.
As for `Cc1cc(CNC(=O)c2cc(C(=O)NCc3ccc(C(=O)NCCN4CCOCC4)cc3)ncn2)ccc1F` [Example 105], the IC50 came to 23 nM.
For the compound `COC(=O)CNC(=O)c1ccc(CNC(=O)c2cc(C(=O)NCc3ccc(F)c(C)c3)ncn2)cc1` [Example 106], the IC50 was 40 nM.
On to `COc1cccc(CNC(=O)c2cc(C(=O)NCc3ccc(C(=O)NC4CCNCC4)cc3)ncn2)c1` [Example 109], for which the IC50 stood at 50 nM.
For the compound `Cc1cc(CNC(=O)c2cc(C(=O)NCc3ccc4c(c3)OCCN4C)ncn2)ccc1F` [Example 112], the IC50 was found to be 45 nM.
`COc1cccc(CNC(=O)c2cc(C(=O)NCc3ccc(C(=O)N4CCN(C)CC4)cc3)ncn2)c1` [Example 114]: the IC50 was found to be 50 nM.
As for `COc1cccc(CNC(=O)c2cc(C(=O)NCc3ccc(C(=O)N4CCN(c5ccncc5)CC4)cc3)ncn2)c1` [Example 115], the IC50 came to 20 nM.
Consider `COc1cccc(CNC(=O)c2cc(C(=O)NCc3ccc(NC(=O)NS(=O)(=O)c4ccc(C)cc4)cc3)ncn2)c1` [Example 118], for which the IC50 was 2.4 nM.
Same read-out and setting: the result for `CN1CCN(C(=O)c2ccc(CNC(=O)c3cc(C(=O)NCc4ccc5c(c4)CCO5)ncn3)cc2)CC1` [Example 119] reads 35 nM; that for `COc1cccc(CNC(=O)c2cc(C(=O)NCc3ccc(NC(=O)NS(=O)(=O)c4ccccc4)cc3)ncn2)c1` [Example 121], 30 nM; that for `O=C(NCCN1CCOCC1)c1ccc(CNC(=O)c2cc(C(=O)NCc3ccc4c(c3)CCO4)ncn2)cc1` [Example 122], 43 nM.
For the compound `COc1cccc(CNC(=O)c2cc(C(=O)NCc3ccc(NC(=O)NC(=O)C4CCCCC4)cc3)ncn2)c1` [Example 125], the IC50 is 4 nM.
As to `COc1cccc(CNC(=O)c2cc(C(=O)NCc3ccc(NC(=O)NC(=O)c4cccnc4)cc3)ncn2)c1` [Example 126], the IC50 amounted to 2.3 nM.
Same read-out and setting: the result for `COc1cccc(CNC(=O)c2cc(C(=O)NCc3ccc(NC(=O)NC(=O)C(C)C)cc3)ncn2)c1` [Example 127] reads 3.3 nM.
As to `COc1cccc(CNC(=O)c2cc(C(=O)NCc3ccc(NC(=O)CN4CCCC4)cc3)ncn2)c1` [Example 128], the half-inhibitory concentration (IC50) worked out at 60 nM.
On to `O=C(NCc1ccc2c(c1)CCO2)c1cc(C(=O)NCc2cc(Cl)cs2)ncn1` [Example 129], for which the IC50 turned out to be 22 nM.
The same measure, in the same setting: to `O=C(NCc1ccc(OCCN2CCOCC2)cc1)c1cc(C(=O)NCc2ccc3c(c2)CCO3)ncn1` [Example 135] belongs 20 nM.
For the compound `COc1cccc(CNC(=O)c2cc(C(=O)NCc3ccc(NC(=O)NC4CCCCC4)cc3)ncn2)c1` [Example 136], the IC50 is 20 nM.

Source of the values: patent US7166609B2, “Pyrimidine-4,6-dicarboxylic acid diamides for selectively inhibiting collagenases” (Sanofi-Aventis Deutschland GmbH, priority 2002, dated 2007).
